These results are taken from ChEMBL document CHEMBL5052852, “Substituted hydantoinamides as adamts7 antagonists” (2021).

Test [1] is described as follows: Inhibition of recombinant rat/human ADAMTS7 hybrid using HiLyteFluor-488 DELSSMVLELRGLRT-K(QXL520)-E-NH2 as substrate incubated for 120 mins and measured by FRET assay.
Test [2] in a line: Inhibition of recombinant rat/human ADAMTS12 hybrid using HiLyteFluor-488 DELSSMVLELRGLRT-K(QXL520)-E-NH2 as substrate incubated for 120 mins and measured by FRET assay.

By IC50 is commonly meant the concentration at which inhibition is half-maximal.

The structures appear in SMILES notation.

Regarding `O=C1NC(=O)C(CNC(=O)c2cnn(-c3ccccc3)n2)(c2ccncc2)N1` (racemic), the IC50 came to 20 nM in test [1] and 2800 nM in test [2].
The matching figures for `CCC1(CNC(=O)c2cnn(-c3ccc(F)cc3)n2)NC(=O)NC1=O` (racemic): 200 nM and 13000 nM.
The corresponding values for `CCC(C)C1(CNC(=O)c2cnn(-c3ccc(F)cc3)n2)NC(=O)NC1=O` (racemic) are 10 nM and 2200 nM.
The matching figures for `O=C1NC(=O)C(CNC(=O)c2cnn(-c3ccccc3)n2)(C2CCC2)N1` (racemic): 55 nM and 14000 nM.
For `O=C1NC(=O)C(CNC(=O)c2cnn(-c3ccc(F)cc3)n2)(c2ccccc2)N1` (racemic), the IC50 was 69 nM in test [1] and over 50000 nM in test [2].
On to `O=C1NC(=O)C(CNC(=O)c2cnn(-c3ccccc3)n2)(C2CCOCC2)N1` (racemic), for which the values for the IC50 in test [1] and in test [2] were 128 nM and 9950 nM, respectively.
The corresponding values for `Cc1nc(C2(CNC(=O)c3cnn(-c4ccc(F)cc4)n3)NC(=O)NC2=O)c(C)s1` (racemic) are 100 nM and 2800 nM.
In the case of `O=C1NC(=O)C(CNC(=O)c2cnn(-c3ccccc3)n2)(c2ccccn2)N1` (racemic), the IC50 in test [1] amounted to 26 nM; in test [2], 4800 nM.
Take `CCCCC1(CNC(=O)c2cnn(-c3ccc(F)cc3)n2)NC(=O)NC1=O` (racemic): the IC50 in test [1] was found to be 120 nM; in test [2] it was 8300 nM.
The matching figures for `CCCCC1(CNC(=O)c2cnn(-c3ccccc3)n2)NC(=O)NC1=O` (racemic): 89 nM and 15000 nM.
The matching figures for `CC(C)C1(CNC(=O)c2cnn(-c3cc(F)c(F)c(F)c3)n2)NC(=O)NC1=O` (racemic): 52 nM and 6000 nM.
The matching figures for `Cn1ccnc1C1(CNC(=O)c2cnn(-c3ccccc3)n2)NC(=O)NC1=O` (racemic): 4 nM and 360 nM.
Turning to `O=C1NC(=O)C(CNC(=O)c2cnn(-c3ccc(F)cc3)n2)(C2CCC2)N1` (racemic), the IC50 in test [1] was determined as 98 nM; in test [2], 35000 nM.
As for `CC(C)C1(CNC(=O)c2cnn(-c3cccc(C#N)c3)n2)NC(=O)NC1=O` (racemic), the IC50 in test [1] stood at 170 nM; in test [2], 6000 nM.
In the case of `Cn1ccnc1C1(CNC(=O)c2cnn(-c3ccc(F)cc3)n2)NC(=O)NC1=O` (racemic), the values for the IC50 in test [1] and in test [2] were 4 nM and 320 nM, respectively.
The corresponding values for `CC(C)C1(CNC(=O)c2cnn(-c3ccccc3)n2)NC(=O)NC1=O` (racemic) are 265 nM and 14500 nM.
The matching figures for `O=C1NC(=O)C(CNC(=O)c2cnn(-c3ccc(F)cc3)n2)(C2(Cl)CC2)N1` (racemic): 74 nM and 3700 nM.
With `O=C1NC(=O)C(CNC(=O)c2cnn(-c3ccc(F)c(Cl)c3)n2)(c2nccs2)N1` (racemic), the results for the IC50 in test [1] and in test [2] were 35 nM and 1200 nM, respectively.
The corresponding values for `CC(C)(C)C1(CNC(=O)c2cnn(-c3ccc(F)cc3)n2)NC(=O)NC1=O` (racemic) are 69 nM and 6000 nM.
The corresponding values for `CCn1nccc1C1(CNC(=O)c2cnn(-c3ccc(F)cc3)n2)NC(=O)NC1=O` (racemic) are 14 nM and 2800 nM.
The matching figures for `O=C1NC(=O)C(CNC(=O)c2cnn(-c3ccc(Cl)c(F)c3)n2)(c2nccs2)N1` (racemic): 19 nM and 1100 nM.
In the case of `Cc1scnc1C1(CNC(=O)c2cnn(-c3ccc(F)cc3)n2)NC(=O)NC1=O` (racemic), the results for the 50% inhibitory concentration (IC50) in test [1] and in test [2] were 8 nM and 680 nM, respectively.
`O=C1NC(=O)C(CNC(=O)c2cnn(-c3ccc(F)cc3)n2)(c2nccs2)N1` (racemic): the IC50 in test [1] was 39 nM; in test [2], 2400 nM.
Take `CC(C)(C)C1(CNC(=O)c2cnn(-c3ccc(C(F)(F)F)c(F)c3)n2)NC(=O)NC1=O` (racemic): the IC50 in test [1] stood at 210 nM; in test [2], 50000 nM.
Turning to `O=C1NC(=O)C(CNC(=O)c2cnn(-c3cccc(F)c3)n2)(c2nccs2)N1` (racemic), the IC50 in test [1] was 12 nM; in test [2], 600 nM.
On to `CC(C)(C)C1(CNC(=O)c2cnn(-c3ccc(C(F)(F)F)cc3)n2)NC(=O)NC1=O` (racemic), for which the values for the IC50 in test [1] and in test [2] were 620 nM and 50000 nM, respectively.
Turning to `CC(C)(C)C1(CNC(=O)c2cnn(-c3cccc(F)c3)n2)NC(=O)NC1=O` (racemic), the figures for the IC50 in test [1] and in test [2] were 260 nM and 6600 nM, respectively.
With `CC(C)C1(CNC(=O)c2cnn(-c3ccc(F)c(F)c3)n2)NC(=O)NC1=O` (racemic), the IC50 in test [1] came to 11 nM; in test [2] it was 2500 nM.
The corresponding values for `O=C1NC(=O)C(CNC(=O)c2cnn(-c3ccc(F)cc3)n2)(c2ncsc2C(F)(F)F)N1` (racemic) are 48 nM and 6600 nM.
The corresponding values for `CC(C)(C)C1(CNC(=O)c2cnc(-c3ccccc3)o2)NC(=O)NC1=O` (racemic) are 480 nM and 50000 nM.
The matching figures for `CC(C)C1(CNC(=O)c2cnn(-c3ccc(Cl)c(F)c3)n2)NC(=O)NC1=O` (racemic): 13 nM and 2800 nM.
As for `CC(C)C1(CNC(=O)c2cnn(-c3ccc(F)cc3F)n2)NC(=O)NC1=O` (racemic), the IC50 in test [1] came to 98 nM; in test [2], 20000 nM.
The corresponding values for `CC(C)C1(CNC(=O)c2cnn(-c3cccc(F)c3)n2)NC(=O)NC1=O` (racemic) are 46 nM and 4500 nM.
In the case of `O=C1NC(=O)C(CNC(=O)c2cnn(-c3ccccc3)n2)(C2CCCOC2)N1` (racemic), the IC50 in test [1] amounted to 62 nM; in test [2] it was 8500 nM.
The matching figures for `O=C1NC(=O)C(CNC(=O)c2cnn(-c3ccc(F)cc3)n2)(CC2CC2)N1` (racemic): 240 nM and 50000 nM.
For the compound `Cn1ccnc1C1(CNC(=O)c2cnn(-c3cc(F)c(F)c(F)c3)n2)NC(=O)NC1=O` (racemic), the IC50 in test [1] came to 5 nM; in test [2], 200 nM.
The matching figures for `CC1(CNC(=O)c2cnn(-c3ccc(F)cc3)n2)NC(=O)NC1=O` (racemic): 560 nM and 5000 nM.
As to `O=C1NC(=O)C(CNC(=O)c2cnn(-c3ccc(F)cc3)n2)(c2ccccn2)N1` (racemic), the IC50 in test [1] turned out to be 10 nM; in test [2], 3000 nM.
The matching figures for `O=C1NC(=O)C(CNC(=O)c2cnn(-c3ccccc3)n2)(C2CCCCC2)N1` (racemic): 145 nM and 50000 nM.
On to `O=C1NC(=O)C(CNC(=O)c2cnn(-c3ccc(F)cc3)n2)(C2CCCC2)N1` (racemic), for which the IC50 was 380 nM in test [1] and 50000 nM in test [2].
The matching figures for `O=C1NC(=O)C(CNC(=O)c2cnn(-c3ccc(F)cc3)n2)(c2ccnn2C(F)F)N1` (racemic): 29 nM and 2400 nM.
The corresponding values for `O=C1NC(=O)C(CNC(=O)c2cnn(-c3ccc(F)cc3)n2)(C2CCOCC2)N1` (racemic) are 260 nM and 9300 nM.
Regarding `O=C1NC(=O)C(CNC(=O)c2cnn(-c3ccc(F)cc3)n2)(c2ccnn2CC(F)(F)F)N1` (racemic), the IC50 came to 50 nM in test [1] and 3200 nM in test [2].
The corresponding values for `O=C1NC(=O)C(CNC(=O)c2cnn(-c3ccccc3)n2)(C2CCCC2)N1` (racemic) are 191 nM and 50000 nM.
As to `CC(C)(C)C1(CNC(=O)c2cnn(-c3ccccc3)n2)NC(=O)NC1=O` (racemic), the IC50 in test [1] is 70 nM; in test [2], 15000 nM.
On to `CC(C)C1(CNC(=O)c2cnn(-c3ccc(F)cc3)n2)NC(=O)NC1=O` (racemic), for which the IC50 in test [1] is 42 nM; in test [2] it was 16000 nM.
The corresponding values for `O=C1NC(=O)C(CNC(=O)c2cnn(-c3ccc(F)cc3)n2)(c2cccnc2)N1` (racemic) are 30 nM and 4500 nM.
The corresponding values for `O=C1NC(=O)C(CNC(=O)c2cnn(-c3ccc(F)cc3F)n2)(c2nccs2)N1` (racemic) are 87 nM and 6600 nM.
The corresponding values for `CCCC1(CNC(=O)c2cnn(-c3ccc(F)cc3)n2)NC(=O)NC1=O` (racemic) are 170 nM and 19000 nM.
In the case of `O=C1NC(=O)C(CNC(=O)c2cnn(-c3ccc(F)cc3)n2)(c2ncccc2C(F)(F)F)N1` (racemic), the IC50 in test [1] was found to be 59 nM; in test [2], 15000 nM.
For `O=C1NC(=O)C(CNC(=O)c2cnn(-c3ccc(F)cc3)n2)(c2ncsc2C2CC2)N1` (racemic), the IC50 in test [1] turned out to be 8 nM; in test [2], 460 nM.
The matching figures for `CC(C)(C)C1(CNC(=O)c2cnn(-c3ccccc3)c2)NC(=O)NC1=O` (racemic): 550 nM and 5600 nM.
The matching figures for `O=C1NC(=O)C(CNC(=O)c2cnn(-c3ccc(F)cc3)n2)(C2CC(F)(F)C2)N1` (racemic): 220 nM and over 50000 nM.
The matching figures for `Cc1ncsc1C1(CNC(=O)c2cnn(-c3ccc(F)cc3)n2)NC(=O)NC1=O` (racemic): 37 nM and 2500 nM.
Turning to `Cn1nccc1C1(CNC(=O)c2cnn(-c3ccc(F)cc3)n2)NC(=O)NC1=O` (racemic), the IC50 in test [1] came out at 10 nM; in test [2], 2400 nM.
For the compound `O=C1NC(=O)C(CNC(=O)c2cnn(-c3ccc(F)cc3)n2)(c2ccncc2)N1` (racemic), the values for the IC50 in test [1] and in test [2] were 140 nM and 2900 nM, respectively.
Consider `CCCC1(CNC(=O)c2cnn(-c3ccccc3)n2)NC(=O)NC1=O` (racemic), for which the IC50 in test [1] worked out at 240 nM; in test [2], 19000 nM.
The matching figures for `O=C1NC(=O)C(CNC(=O)c2cnn(-c3ccccc3)n2)(CC2CC2)N1` (racemic): 670 nM and 25000 nM.
In the case of `O=C1NC(=O)C(CNC(=O)c2cnn(-c3ccccc3)n2)(C2CCOC2)N1` (racemic), the values for the IC50 in test [1] and in test [2] were 170 nM and 22000 nM, respectively.
The corresponding values for `O=C1NC(=O)C(CNC(=O)c2cnn(-c3ccc(F)cc3)n2)(C2(F)CC2)N1` (racemic) are 190 nM and 7900 nM.
